Source: US5169850A, “N-(dialkylamino)methylene)-substituted pyrazolo(1,5-a)-pyrimidine-3-carboxamides and N-(dialkylamino)methylene-substituted-4,5-dihydropyrazolo-(1,5-a)-pyrimi dine-3-carboxamides” (American Cyanamid Company, priority 1991, dated 1992)
Values joined by “and” are separate entries in the source; they are usually repeats but may differ in a detail not shown here. Equal entries are not always repeated.

What was measured:
[1] = system: Brain-Specific Receptors of Rats (3H-benzodiazepine binding); test: Inhibition of the binding of 3H-benzodiazepine to brain-specific receptors of rats; design: species or system rat (male albino, Wistar strain); conditions: 3H-diazepam or 3H-flunitrazepam, rat cortex P2 fraction, pH 7.4, 30 min in ice; test concentration not given
Source text: Still another test utilized for the determination of anxiolytic activity is the measurement of the ability of a test compound to inhibit the binding of tritiated benzodiazepines to brain-specific receptors of mammals. A modification of the method described by R. F. Squires, et al, Nature, 266, No. 21:732 (April, 1977) and H. Mosler, et al, Science, 198:849 (1977) was employed.
Male albino rats (Wistar strain, weighing 150-200 g each) were used. The test compounds were solubilized in N,N-dimethylformamide, acetic acid, ethanol or hydrochloric acid.
Whole cortex of rats was homogenized gently in 20 volumes of ice-cold 0.32 M sucrose, centrifuged twice at 1000 g for 10 minutes and then recentrifuged at 30,000 g for 20 minutes to produce a crude P2 -synaptosomal fraction. The P2 -fraction was either: (1) resuspended in twice the original volume in hypotonic 50 mM Tris.HCl(pH 7.4), or (2) resuspended in one-half of the original volume in hypotonic 10 mM Tris.HCL (pH 7.4) and frozen (-20° C.) until time of use. Frozen P2 preparations were thawed and resuspended in four times the original homogenizing volume at time of assay.
The binding assay consisted of 300 l of the P2 -fraction suspension (0.2-0.4 mg protein), 100 l of test drug and 100 l of 3H-diazepam 91.5 nM, final concentration) or 3H-flunitrazepam (1.0 nM, final concentration )which was added to 1.5 l of 50 mM Tris.HCl (pH 7.4). Non-specific binding controls and total binding controls received […] of diazepam ([…] final concentration) and 100 l of deionized water, respectively, in place of the test compound. Incubation for 30 minutes proceeded in ice and was terminated by filtration, under vacuum, through glass fiber filters. The filters were washed twice with 5 ml of ice-cold 50 mM Tris.HCl (pH 7.4) and placed in scintillation vials. After drying at 50°-60° C. for 30 minutes, 10 ml of diluent was added and the radioactivity determined in a scintillation counter.
Inhibition of binding was calculated by the difference between total binding and binding in the presence of test compound, divided by the total, times 100. Physiological activity can be shown by a test compound that inhibits 3H-benzodiazepine binding by 12 percent or more.

Hypoxic Survival Test = type: in vivo, Royal Hart mice; conditions: for % Survivors: 30 min before hypoxia, survival after 5 min
Procedure: A useful in vivo test that measures how effectively central nervous system-acting drugs enhance survival in an hypoxic environment, presumably by improving the ratio of energy supply to demand is known as the Hypoxic Survival Test. […] Drugs are tested by intraperitoneally injecting groups of mice 30 minutes prior to placing them in hypoxic mixture and measuring survival. The rationale of this test is that drugs which enhance survival under hypoxic conditions without concomitant, depression or sedative side effects, may do so by enhancing energy metabolism, or by preserving normal brain function under conditions of reduced energy metabolism. Given the dependence of the brain on a constant supply of energy, drugs which have this property may have many far-reaching therapeutic indications, including recovery from stroke and closed head injury, as well as reducing the deleterious effects of the aging central nervous system. […]
A separate group of 20 mice is injected intraperitoneally with saline solution (0.01 cc/g of body weight) and processed as described above.
Still another group of 20 mice is injected intraperitoneally with 0.125 mg/kg of physostigmine and processed as described above.

[2] = Passive-Avoidance Anoxic-Induced-Amnesia Test; type: in vivo, Swiss-Webster mice; conditions: vs saline control, active if 30 percent
Source text: Another in vivo test associated with decreased neural function in mammals is the Passive-Avoidance Anoxic-Induced-Amnesia Test. This test is used to determine the attenuation of anoxic induced amnesia in mice treated with drug, as compared to saline treated control animals with no drug.
A shock-motivated, single trial, step-through passive avoidance procedure is used. Groups of 25 Swiss-Webster, middle aged mice (9 months of age) are placed singly in the front chamber of a 2-chamber box and are allowed to voluntarily cross into the rear chamber. As soon as the mouse enters the rear chamber, a door automatically traps the animal and a mild electric shock (0.4 mA for 4 seconds) is delivered to its feet. Following the foot shock, the mice are initially placed in an anoxic environment (0 percent oxygen) for 12 seconds, which quickly induces unconsciousness. They are then placed in a hypoxic environment (15 percent oxygen) for four minutes which prolongs the oxygen deprived state, maintaining unconsciousness. All testing is performed 24 hours later, and in all cases the mice appear fully recovered from the previous anoxic/hypoxic treatment. All test compounds are administered intraperitoneally at a dose of 5-200 mg/kg, 30 minutes prior to training and testing. Control animals are injected intraperitoneally only with saline at 0.01 cc/g of body weight.
The latency to enter the rear chamber is recorded for both training and testing. Presumably, the more the animal remembers being shocked, the greater it will inhibit going into the rear chamber and the higher will be its latency to re-enter. An improvement of 30 percent over saline control scores is considered active.

[3] = Protection against clonic seizures caused by pentylenetetrazole; type: in vivo, rats; conditions: orally or intraperitoneally, pentylenetetrazole 23 mg/kg i.v. at 30 or 60 min
Procedure: The anti-anxiety properties of the novel compounds of the present invention have been established in a test which indicates anxiolytic activity by the measure of protection from convulsions resulting from the administration of pentylenetetrazole. Single or graded dose levels of the test compounds were administered orally or intraperitoneally in a 2 percent starch vehicle containing 0.5 percent v/v polyethylene glycol and one drop of Polysorbate 80, or distilled water and one drop of Polysorbate 80 to groups of at least four rats. At 30 or 60 minutes, the rats were treated intravenously with pentylenetetrazole at a dose of 23 mg/kg of body weight. This dose is estimated to cause clonic seizures in 99 percent of unprotected rats. The test compounds are considered active if they protect 50 percent or more of the rats from clonic seizures.
It has been reported (R. T. Hill and D. H. Tedeschi, "Animal Testing and Screening Procedures in Evaluating Psychotropic Drugs" in "An Introduction to Psychopharmacology", pp 237-288 (Eds. R. R. Rech and K. E. Moore, Raven Press, New York, 1971)) that there is a high degree of correlation between antagonism of pentylenetetrazole seizures in rats and anti-anxiety effects in higher warm-blooded animals.

[4] = Mean arterial blood pressure in spontaneously hypertensive rats; type: in vivo, spontaneously hypertensive rats of the Okamoto strain; conditions: gavage, 100 mg/kg or less, two doses 24 h apart, measured at 28 h; average MABP of rats 160±1.5
Procedure: Certain of the novel compounds of the present invention are active hypotensive agents at non-toxic doses when administered to mammals. These compounds were tested for hypotensive activity by the method of P. S. Chan and D. W. Poorvin, Clinical and Experimental Hypertension, 1 (6), […] (1979). Male, 16 week old spontaneously hypertensive rats of the Okamoto strain having an average mean arterial blood pressure of 160±1.5 mm of mercury are used in the test. One to three rats are used per test compound. A rat is dosed by gavage with a test compound, suspended in 2 percent pre-boiled starch at a concentration of50 mg/ml, at a dose of 100 mg/kg of body weight or less, with 0.9 percent sodium chloride loading at a dose of 25 ml/kg of body weight. A second identical dose of the test compound, without sodium chloride loading is given 24 hours later. At 28 hours after the initial dose the mean arterial blood pressure is measured by the method of Chan and Poorvin vide supra. The procedure is repeated in a second and third rat when necessary.

[5] = Conflict procedure (non-conditioned passive avoidance); type: in vivo, Wistar strain rats; conditions: 25 mg/kg oral, 60 min before test
Procedure: Another test used to assess anti-anxiety effects is a non-conditioned passive avoidance procedure described by J. R. Vogel, G. Beer and D. E. Clody, "A Simple and Reliable Conflict Procedure for Testing Antianxiety Agents", Psychopharmacologia, 21, 1-7 (1971). A conflict situation was induced in rats by a modification of this method.
Groups of 8 naive, Wistar strain rats, weighing 200-240 g each, were deprived of water for 48 hours. The test compounds were administered in single or graded, oral doses, suspended in 2 percent starch with […] polyethylene glycol in distilled water and one drop of Polysorbate 80. Control animals received the vehicle alone. At 60 minutes each rat was placed in an individual clear plastic chamber. Tap water was available ad libitum from a nipple located in a black box off the main chamber. A 0.7 milliampere AC shocking current was established between the stainless steel grid floor and the tap. After 20 licks of non-shocked drinking, a 2 second shocking current was administered to the rat. This ratio of 20 licks of non-shocked drinking followed by a 2 second shock was continued for a total of 3 minutes. The number of shocks taken by each rat during the 3 minute interval was recorded and compared to a control group. […]

CN(C)C=NC(=O)c1cnn2c(-c3cccc(C(F)(F)F)c3)ccnc12 [N-((Dimethylamino)methylene)-7-(3-trifluoromethyl)phenyl)pyrazolo(1,5-a)pyrimidine-3-carboxamide]
% Inhibition [1]: 82%

CN(C)C=NC(=O)c1cnn2c(-c3ccccc3)ccnc12 [N-((Dimethylamino)methylene)-7-phenylpyrazolo(1,5-a)-pyrimidine-3-carboxamide]
% Inhibition [1]: 28%

Cc1nn2c(-c3ccccc3)ccnc2c1C(=O)N=CN(C)C [N-((Dimethylamino)methylene)-2-methyl-7-phenylpyrazolo(1,5-a)pyrimidine-3-carboxamide]
% Inhibition [1]: 18% | % Survivors (Hypoxic Survival Test; 0.1 mg/kg i.p.): 45% | % Survivors (Hypoxic Survival Test; 10 mg/kg i.p.): 100% | % Survivors (Hypoxic Survival Test; 100 mg/kg i.p.): 97% | % Survivors (Hypoxic Survival Test; 200 mg/kg i.p.): 95% | % Improvement ([2]; 5 mg/kg i.p.): 49% | % Improvement ([2]; 10 mg/kg i.p.): 37% | % Improvement ([2]; 25 mg/kg i.p.): 66% | % Improvement ([2]; 50 mg/kg i.p.): 66%

CN(C)C=NC(=O)c1cnn2c1NCC=C2c1cccc(C(F)(F)F)c1 [N-((Dimethylamino)methylene)-4,5-dihydro-7-(3-(trifluoromethyl)phenylpyrazolo(1,5-a)-pyrimidine-3-carboxamide]
% Inhibition [1]: 17% | % Survivors (Hypoxic Survival Test; 50 mg/kg i.p.): 75% | % Survivors (Hypoxic Survival Test; 100 mg/kg i.p.): 57% | % of Rats Protected ([3]; 12.5 mg/kg): 88% | % of Rats Protected ([3]; 25 mg/kg): 75% and 88% | % Improvement ([2]; 25 mg/kg i.p.): 49% | % Improvement ([2]; 50 mg/kg i.p.): 57% | MABP/mmHg (no. of rat) [4]: 131 mmHg | Result (no. of shocks per 3 min.) [5]: 22.9 no. of shocks per 3 min.

CN(C)C=NC(=O)c1cnn2c(-c3cccnc3)ccnc12 [N-((Dimethylamino)methylene)-7-(3-pyridinyl)-pyrazolo(1,5-a)pyrimidine-3-carboxamide]
% Survivors (Hypoxic Survival Test; 25 mg/kg i.p.): 80% and 58% and 42% | % Improvement ([2]; 25 mg/kg i.p.): 33% | % Improvement ([2]; 50 mg/kg i.p.): 33%

CN(C)C=NC(=O)c1cnn2c1NCC=C2c1cccnc1 [N-((Dimethylamino)methylene)4,5-dihydro-7-(3-pyridinyl)pyrazolo(1,5-a)pyrimidine-3-carboxamide]
% Inhibition [1]: 32% | % Improvement ([2]; 50 mg/kg i.p.): 66% | % Improvement ([2]; 100 mg/kg i.p.): 54% | MABP/mmHg (no. of rat) [4]: 113 mmHg

CC(=NC(=O)c1cnn2c(-c3cccnc3)ccnc12)N(C)C [N-((Dimethylamino)ethylidene)-7-(3-pyridinyl)pyrazolo(1,5-a)pyrimidine 3-carboxamide]
% Improvement ([2]; 25 mg/kg i.p.): 53% | % Improvement ([2]; 50 mg/kg i.p.): 46%

Cc1cccc(-c2ccnc3c(C(=O)N=CN(C)C)cnn23)c1 [N-((Dimethylamino)methylene) 7-(3-methylphenyl)pyrazolo(1,5-a)pyrimidine-3-carboxamide]
% Inhibition [1]: 65% | % of Rats Protected ([3]; 50 mg/kg): 50%

Cc1cc(-c2ccccc2)n2nc(C)c(C(=O)N=CN(C)C)c2n1 [N-((Dimethylamino)methylene)-2,5-dimethyl-7-phenylpyrazolo(1,5-a)pyrimidine-3-carboxamide]
% Survivors (Hypoxic Survival Test; 100 mg/kg i.p.): 42%

Cc1nn2c(-c3ccncc3)ccnc2c1C(=O)N=CN(C)C [N-((Dimethylamino)methylene)-2-methyl-7-(4-pyridinyl)pyrazolo(1,5-a)pyrimidine-3-carboxamide]
% Survivors (Hypoxic Survival Test; 10 mg/kg i.p.): 55% | MABP/mmHg (no. of rat) [4]: 130 mmHg

CNC(=O)Oc1ccc2c(c1)[C@]1(C)CCN(C)[C@@H]1N2C [physostigmine, reference compound]
percent of physostigmine treated mice that survive (Hypoxic Survival Test; 10 percent oxygen, after 5 minutes, control mice 5-20 percent, dose 0.125 mg/kg i.p.): 60-80%

Cc1cnc2c(C(=O)N=CN(C)C)cnn2c1 [N-((Dimethylamino)methylene)-6-methyl-pyrazolo(1,5-a)pyrimidine-3-carboxamide]
% Survivors (Hypoxic Survival Test; 10 mg/kg i.p.): 42% | % Survivors (Hypoxic Survival Test; 50 mg/kg i.p.): 40% | % Survivors (Hypoxic Survival Test; 100 mg/kg i.p.): 62% | % Survivors (Hypoxic Survival Test; 200 mg/kg i.p.): 45%
